Reference: patent US20070020244A1, “Fiber constructs and process of fiber fabrication” (The Johns Hopkins University, priority 2005, published 2007)

Tested on: PC12 cells
Assay: PC12 bioassay of NGF released from fiber
Assay type: cell-based
Conditions: for time period of significant cell differentiation: supernatant with released NGF
From the text: Nerve growth factor (NGF) was used as the model protein to investigate if incorporation of protein into the fibre compromises its bioactivity. The bioactivity of the released NGF was confirmed by its ability to differentiate PC12 cells, and in a dose-dependent manner. (FIG. 2C) At the increasing loading concentrations of NGF indicated, significant cell differentiation could be observed for time periods of up to 3 d, 5 d and 7 d, respectively. In all cases, the minimum concentration of NGF required to induce neurite outgrowth appeared to be in the region of 0.5 ng/mL, which agrees well with the literature. See, Physiological Reviews 60, 1284-1335 (1980).
Encapsulation of recombinant human β-NGF (MW 13,200, R&D Systems) was performed in the same way as described for BSA. Ring-spooled fibers were incubated in RPMI media over a period of 1 week, during which supernatants were collected for the PC12 bioassay and NGF ELISA (DuoSet ELISA Development System for human β-NGF, R&D Systems).

## NGF: Recombinant human β-NGF (MW 13,200, R&D Systems), model protein encapsulated in and released from the fiber
NGF released from fiber, PC12 cells
  minimum concentration of NGF required to induce neurite outgrowth: ~0.5 ng/mL
Loading concentration 66 ng/mL
  time period of significant cell differentiation: up to 3 d
Loading concentration 86 ng/mL
  time period of significant cell differentiation: ≤ 5 days
Loading concentration 112 ng/mL
  time period of significant cell differentiation: ≤ 7 days
